Experimental data: patent US7084301B2 (Ranbaxy Laboratories Limited, priority 2003, dated 2006)

Experiments:
human α1D-adrenoceptors = biological target: T1, human α1D-adrenoceptors (Homo sapiens, UniProt P25100); assay: Radioligand-receptor binding assay, human recombinant α1D-adrenoceptor, [3H]prazosin
T1 sequence (P25100 1-572): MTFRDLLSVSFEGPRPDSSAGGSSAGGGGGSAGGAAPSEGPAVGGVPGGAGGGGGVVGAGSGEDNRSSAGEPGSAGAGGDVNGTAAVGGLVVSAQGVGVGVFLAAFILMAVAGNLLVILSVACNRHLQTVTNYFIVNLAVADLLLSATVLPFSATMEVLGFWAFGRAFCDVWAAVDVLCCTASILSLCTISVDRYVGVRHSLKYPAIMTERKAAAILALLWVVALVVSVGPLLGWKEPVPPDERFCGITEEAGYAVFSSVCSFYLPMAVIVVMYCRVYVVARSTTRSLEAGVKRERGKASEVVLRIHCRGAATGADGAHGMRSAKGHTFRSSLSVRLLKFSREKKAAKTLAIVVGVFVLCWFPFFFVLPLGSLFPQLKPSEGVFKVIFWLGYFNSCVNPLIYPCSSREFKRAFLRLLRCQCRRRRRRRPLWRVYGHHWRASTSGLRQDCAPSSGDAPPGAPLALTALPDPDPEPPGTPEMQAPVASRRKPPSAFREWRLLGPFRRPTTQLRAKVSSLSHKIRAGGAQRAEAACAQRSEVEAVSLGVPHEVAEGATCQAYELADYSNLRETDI
Procedure: (§1) Chinese hamster ovary (CHO) cells which had been stably transfected with human α1A, α1B, or α1D-adrenoceptors (Keffel et al., Biochem. Biophys. Res. Commun., 2000, 272, 906–11) were cultured in an atmosphere of 5% CO2/95% air at 37° C. in F-12 HAM medium supplemented with 10% heat-inactivated fetal calf serum, 1 mM glutamine, 100 U/ml penicillin and 0.1 mg/ml streptomycin. Selection pressure was maintained by regular addition of geneticin to the culture medium.
(§2) Competitive radioligand binding to the cloned subtypes of […] was performed using [^3H]prazosin as the radioligand as described by Michel et al, Br. J. Pharmacol., 98, 883–889 (1989) with minor modifications. Experiments were performed in binding buffer consisting of 50 mM Tris, 10 mM MgCl2 and 0.5 mM EDTA at pH 7.5 in a total assay volume of 1000 μl. The protein content typically was 40–60 μg/assay. The mixtures were incubated at 25° C. for 45 minutes. Incubations were terminated by rapid vacuum filtration over GF/C filters followed by two washes of the filters each with 10 ml ice-cold incubation buffer. Non-specific binding was defined as binding in the presence of 10 μM phentolamine.
(§3) The IC50 & Kd were estimated by using the non-linear curve fitting program using G Pad Prism software. The value of inhibition constant Ki was calculated from competitive binding studies by using Cheng & Prusoff equation [Cheng & Prusoff, Biochem. Pharmacol., 22, 3099–3108 (1973)], Ki=IC50/(1+L/Kd), where L is the concentration of [^3H] prazosin used in the particular experiment. Kd of [^3H] prazosin was determined from saturation binding studies. The values were tabulated as mean±SEM of pKi values, where pKi is the −log of Ki value.

human α1A-adrenoceptors = biological target: T2, human α1A-adrenoceptors (Homo sapiens, UniProt P35348); assay: Radioligand-receptor binding assay, human recombinant α1A-adrenoceptor, [3H]prazosin; settings: human recombinant receptors in CHO cells, mean ± SEM; read-out: pKi α1A (converted)
T2 sequence (P35348 1-466): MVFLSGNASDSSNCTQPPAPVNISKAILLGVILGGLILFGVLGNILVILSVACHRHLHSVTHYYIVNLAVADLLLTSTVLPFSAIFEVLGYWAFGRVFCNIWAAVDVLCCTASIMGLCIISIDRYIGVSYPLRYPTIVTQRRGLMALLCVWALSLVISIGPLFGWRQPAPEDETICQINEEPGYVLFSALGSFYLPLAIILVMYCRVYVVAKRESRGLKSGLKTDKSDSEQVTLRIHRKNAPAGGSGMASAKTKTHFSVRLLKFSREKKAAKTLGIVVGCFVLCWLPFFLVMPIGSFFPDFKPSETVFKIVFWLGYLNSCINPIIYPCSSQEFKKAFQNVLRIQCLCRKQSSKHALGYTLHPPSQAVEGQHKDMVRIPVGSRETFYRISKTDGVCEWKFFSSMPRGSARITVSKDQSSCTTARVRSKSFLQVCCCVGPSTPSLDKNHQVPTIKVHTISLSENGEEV
Procedure: as §1, §2, §3

human α1B-adrenoceptors = biological target: T3, human α1B-adrenoceptors (Homo sapiens, UniProt P35368); assay: Radioligand-receptor binding assay, human recombinant α1B-adrenoceptor, [3H]prazosin
T3 sequence (P35368 1-520): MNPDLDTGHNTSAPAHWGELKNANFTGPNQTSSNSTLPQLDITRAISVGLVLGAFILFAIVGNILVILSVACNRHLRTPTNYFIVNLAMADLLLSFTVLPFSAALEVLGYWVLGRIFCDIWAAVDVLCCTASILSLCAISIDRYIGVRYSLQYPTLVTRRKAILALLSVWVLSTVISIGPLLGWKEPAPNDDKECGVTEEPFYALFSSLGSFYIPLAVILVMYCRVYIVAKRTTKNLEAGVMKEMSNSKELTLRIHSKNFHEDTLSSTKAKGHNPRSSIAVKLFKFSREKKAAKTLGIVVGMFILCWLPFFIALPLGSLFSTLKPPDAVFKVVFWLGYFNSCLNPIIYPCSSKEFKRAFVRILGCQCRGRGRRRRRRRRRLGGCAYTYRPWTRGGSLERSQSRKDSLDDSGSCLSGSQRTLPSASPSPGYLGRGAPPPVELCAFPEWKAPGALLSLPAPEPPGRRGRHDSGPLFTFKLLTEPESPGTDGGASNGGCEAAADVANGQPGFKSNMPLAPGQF
Procedure: as §1, §2, §3

| Structure (SMILES) | Ki (human α1D-adrenoceptors) [nM] | Ki (human α1A-adrenoceptors) [nM] | Ki (human α1B-adrenoceptors) [nM] |
| --- | --- | --- | --- |
| CCOc1ccccc1OCCNC(C)Cc1ccc(O)c(S(N)(=O)=O)c1 (racemic) [Racemate] | 0.214 | 0.0832 | 1.1 |
| CCOc1ccccc1OCCN[C@@H](C)Cc1ccc(O)c(S(N)(=O)=O)c1 [(S)-isomer] | 7.94 | 2.24 | 21.9 |
